Tests used:
Test in all cases: Kinase panel (mobility shift)
Assay type in all cases: biochemical
DDR2 = target: T1, DDR2 (Homo sapiens, UniProt Q16832)
T1 sequence (Q16832 22-855): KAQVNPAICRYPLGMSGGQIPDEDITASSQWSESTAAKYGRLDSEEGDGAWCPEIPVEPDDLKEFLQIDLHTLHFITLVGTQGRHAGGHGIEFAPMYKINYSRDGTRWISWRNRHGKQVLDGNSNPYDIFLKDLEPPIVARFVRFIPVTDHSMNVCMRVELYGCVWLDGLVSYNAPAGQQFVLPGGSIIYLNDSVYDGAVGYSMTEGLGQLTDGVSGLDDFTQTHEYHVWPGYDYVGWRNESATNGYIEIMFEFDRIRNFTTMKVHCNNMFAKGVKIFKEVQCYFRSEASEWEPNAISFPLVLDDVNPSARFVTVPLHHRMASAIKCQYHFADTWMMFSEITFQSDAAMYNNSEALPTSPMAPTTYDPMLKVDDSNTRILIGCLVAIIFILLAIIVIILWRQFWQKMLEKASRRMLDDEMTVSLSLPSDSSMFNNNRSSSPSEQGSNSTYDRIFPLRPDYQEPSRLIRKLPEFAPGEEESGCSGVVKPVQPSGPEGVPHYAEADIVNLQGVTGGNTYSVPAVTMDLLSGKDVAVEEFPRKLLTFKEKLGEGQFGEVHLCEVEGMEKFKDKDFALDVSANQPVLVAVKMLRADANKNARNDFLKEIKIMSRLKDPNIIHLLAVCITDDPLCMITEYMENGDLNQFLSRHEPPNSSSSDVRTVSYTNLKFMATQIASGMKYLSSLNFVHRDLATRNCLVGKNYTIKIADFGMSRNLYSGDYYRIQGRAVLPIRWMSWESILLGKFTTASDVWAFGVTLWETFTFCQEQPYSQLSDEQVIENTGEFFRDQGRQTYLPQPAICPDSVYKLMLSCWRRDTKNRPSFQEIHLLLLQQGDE
Method: (§1) The disclosed compounds were tested for activity against a panel of 299 kinases. The target enzyme was incubated with fluorescently labeled substrate and test compounds in a standardized reaction mixture in 384 well plates. Upon termination of the reaction, samples were introduced onto microfluidic chips. The samples migrated through channels in the chips and product and substrate were separated based on the difference in their charge (electrophoretic mobility shift). Enzyme activity was measured by direct comparison of the fluorescence in the product and substrate peaks. […] In the tables A=95% or greater at 5 um, B=90%-94% at 5 um, and C=80%-89% at 5 um. [note to draft: we included category D for 50-79 and category E is less than 50%. Feel free to remove if not needed)

LCK = LCK (Homo sapiens, UniProt P06239)
Method: as §1

AXL = target: T2, AXL (Homo sapiens, UniProt P30530)
T2 sequence (P30530 26-894): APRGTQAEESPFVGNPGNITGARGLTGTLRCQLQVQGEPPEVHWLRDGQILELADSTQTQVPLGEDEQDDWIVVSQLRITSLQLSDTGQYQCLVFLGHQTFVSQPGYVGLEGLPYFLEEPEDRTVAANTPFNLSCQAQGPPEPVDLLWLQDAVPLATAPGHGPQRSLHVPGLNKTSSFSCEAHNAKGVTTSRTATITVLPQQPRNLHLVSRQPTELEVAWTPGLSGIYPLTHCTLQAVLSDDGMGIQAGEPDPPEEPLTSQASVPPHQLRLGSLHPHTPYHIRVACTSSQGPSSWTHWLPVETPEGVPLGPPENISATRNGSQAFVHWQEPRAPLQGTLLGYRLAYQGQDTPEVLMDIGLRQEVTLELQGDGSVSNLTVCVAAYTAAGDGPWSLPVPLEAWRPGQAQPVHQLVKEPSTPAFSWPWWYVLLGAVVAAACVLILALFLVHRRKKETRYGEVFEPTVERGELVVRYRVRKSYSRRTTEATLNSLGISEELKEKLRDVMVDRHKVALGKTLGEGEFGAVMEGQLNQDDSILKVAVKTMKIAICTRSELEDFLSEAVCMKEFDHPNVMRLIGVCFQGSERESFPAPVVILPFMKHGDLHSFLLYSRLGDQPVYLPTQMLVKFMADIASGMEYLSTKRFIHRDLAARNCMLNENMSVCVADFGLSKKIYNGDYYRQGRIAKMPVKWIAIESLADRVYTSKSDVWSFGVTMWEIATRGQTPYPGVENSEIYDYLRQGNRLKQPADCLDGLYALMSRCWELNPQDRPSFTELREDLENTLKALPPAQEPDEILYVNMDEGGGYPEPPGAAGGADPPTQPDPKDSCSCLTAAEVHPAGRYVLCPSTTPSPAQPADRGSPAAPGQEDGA
Method: as §1

BRK = BRK (Homo sapiens, UniProt Q13882)
Method: as §1

KIT = KIT (Homo sapiens, UniProt P10721)
Method: as §1

TRKB = TRKB (Homo sapiens, UniProt Q16620)
Method: as §1

BRK, sequence (Q13882 whole entry, species assumed): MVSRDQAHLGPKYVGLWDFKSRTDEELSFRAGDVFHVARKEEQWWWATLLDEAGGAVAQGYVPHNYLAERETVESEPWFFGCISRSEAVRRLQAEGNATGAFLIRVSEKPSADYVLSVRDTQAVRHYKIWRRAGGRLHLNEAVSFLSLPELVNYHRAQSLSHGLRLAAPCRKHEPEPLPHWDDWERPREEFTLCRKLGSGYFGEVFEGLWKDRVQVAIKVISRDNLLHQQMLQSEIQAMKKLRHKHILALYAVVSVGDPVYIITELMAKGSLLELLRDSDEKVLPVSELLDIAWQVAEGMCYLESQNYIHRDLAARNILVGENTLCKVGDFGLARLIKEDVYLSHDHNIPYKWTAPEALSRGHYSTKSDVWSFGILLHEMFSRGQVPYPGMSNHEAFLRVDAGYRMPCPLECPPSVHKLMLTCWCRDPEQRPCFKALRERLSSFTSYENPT
KIT, sequence (P10721 26-976, species assumed): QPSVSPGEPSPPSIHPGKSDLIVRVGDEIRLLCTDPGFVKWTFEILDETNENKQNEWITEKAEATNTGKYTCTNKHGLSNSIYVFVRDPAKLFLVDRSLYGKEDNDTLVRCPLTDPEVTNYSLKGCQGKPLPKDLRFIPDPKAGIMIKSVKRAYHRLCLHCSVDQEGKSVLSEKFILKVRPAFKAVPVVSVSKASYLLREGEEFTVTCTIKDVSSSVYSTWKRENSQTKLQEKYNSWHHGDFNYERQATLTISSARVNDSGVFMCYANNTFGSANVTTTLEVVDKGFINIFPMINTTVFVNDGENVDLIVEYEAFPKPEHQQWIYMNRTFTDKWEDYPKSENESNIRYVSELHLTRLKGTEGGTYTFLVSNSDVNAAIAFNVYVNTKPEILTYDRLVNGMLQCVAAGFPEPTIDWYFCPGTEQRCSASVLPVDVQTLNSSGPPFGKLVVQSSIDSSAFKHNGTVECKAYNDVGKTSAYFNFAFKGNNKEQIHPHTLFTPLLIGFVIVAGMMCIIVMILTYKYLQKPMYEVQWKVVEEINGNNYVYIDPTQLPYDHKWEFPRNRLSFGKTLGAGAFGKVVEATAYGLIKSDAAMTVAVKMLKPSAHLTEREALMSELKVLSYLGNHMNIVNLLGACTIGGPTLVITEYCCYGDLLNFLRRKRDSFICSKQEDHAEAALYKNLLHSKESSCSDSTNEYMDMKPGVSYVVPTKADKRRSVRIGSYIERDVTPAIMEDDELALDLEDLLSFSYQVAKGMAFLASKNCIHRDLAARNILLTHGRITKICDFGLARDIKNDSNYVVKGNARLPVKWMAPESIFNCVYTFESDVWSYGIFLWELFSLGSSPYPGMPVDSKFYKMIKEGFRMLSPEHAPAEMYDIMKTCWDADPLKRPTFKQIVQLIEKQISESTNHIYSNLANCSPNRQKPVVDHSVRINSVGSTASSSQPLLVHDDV
LCK, sequence (P06239 whole entry, species assumed): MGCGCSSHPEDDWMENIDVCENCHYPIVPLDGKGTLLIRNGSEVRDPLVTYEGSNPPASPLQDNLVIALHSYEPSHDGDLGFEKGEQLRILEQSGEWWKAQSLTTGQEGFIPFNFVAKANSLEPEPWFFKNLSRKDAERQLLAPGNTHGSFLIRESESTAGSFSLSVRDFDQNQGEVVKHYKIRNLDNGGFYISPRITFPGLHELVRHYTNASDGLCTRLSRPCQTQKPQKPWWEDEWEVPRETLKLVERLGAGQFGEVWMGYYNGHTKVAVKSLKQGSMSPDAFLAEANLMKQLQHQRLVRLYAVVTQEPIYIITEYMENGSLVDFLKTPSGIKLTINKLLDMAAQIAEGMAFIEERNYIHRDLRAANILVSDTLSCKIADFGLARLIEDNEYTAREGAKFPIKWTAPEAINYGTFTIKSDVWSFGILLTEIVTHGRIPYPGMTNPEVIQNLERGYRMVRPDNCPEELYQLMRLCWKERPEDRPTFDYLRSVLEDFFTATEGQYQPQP
TRKB, sequence (Q16620 32-822, species assumed): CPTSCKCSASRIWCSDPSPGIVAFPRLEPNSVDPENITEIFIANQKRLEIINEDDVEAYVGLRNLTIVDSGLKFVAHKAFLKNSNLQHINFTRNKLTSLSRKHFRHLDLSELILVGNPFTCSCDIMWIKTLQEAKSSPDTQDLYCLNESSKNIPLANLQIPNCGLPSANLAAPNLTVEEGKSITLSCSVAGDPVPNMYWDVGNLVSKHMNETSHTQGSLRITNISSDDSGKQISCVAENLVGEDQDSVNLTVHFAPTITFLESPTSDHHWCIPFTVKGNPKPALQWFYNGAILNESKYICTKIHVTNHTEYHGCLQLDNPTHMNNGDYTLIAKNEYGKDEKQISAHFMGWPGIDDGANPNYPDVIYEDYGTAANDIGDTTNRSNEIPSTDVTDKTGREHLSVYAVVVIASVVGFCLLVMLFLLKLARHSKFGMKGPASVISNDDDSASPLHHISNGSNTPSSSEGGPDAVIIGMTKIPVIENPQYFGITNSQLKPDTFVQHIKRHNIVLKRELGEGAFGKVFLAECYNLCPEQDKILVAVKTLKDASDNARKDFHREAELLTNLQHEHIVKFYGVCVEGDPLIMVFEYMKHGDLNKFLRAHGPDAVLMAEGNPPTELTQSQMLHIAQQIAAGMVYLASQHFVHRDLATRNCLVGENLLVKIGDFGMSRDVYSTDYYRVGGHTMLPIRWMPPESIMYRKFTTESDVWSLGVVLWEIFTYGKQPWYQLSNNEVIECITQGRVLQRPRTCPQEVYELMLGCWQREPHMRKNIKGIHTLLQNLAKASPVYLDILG

Row | SMILES | inhibition at 5 µM (DDR2) | inhibition at 5 µM (LCK) | inhibition at 5 µM (AXL) | inhibition at 5 µM (BRK) | inhibition at 5 µM (KIT) | inhibition at 5 µM (TRKB)
1 | CSc1nc(C(=O)Nc2ccc(Oc3ccnc(N)c3Cl)c(F)c2)c(-c2ccc(F)cc2)o1 [Compound 1] | 50 to 79% | < 50% | < 50% | 50 to 79% | < 50% | < 50%
2 | CSc1nc(C(=O)Nc2ccc(Oc3cc4cnn(C)c4cc3Br)c(F)c2)c(-c2ccc(F)cc2)o1 [Compound 2] | 50 to 79% | < 50% | < 50% | < 50% | < 50% | < 50%
3 | CNC(=O)c1cc(Oc2ccc(NC(=O)c3nc(SC)oc3-c3ccc(F)cc3Cl)cc2)ccn1 [Compound 3] | 80 to 89% | ≥ 95% | 80 to 89% | 90 to 94% | 50 to 79% | 80 to 89%
4 | CNC(=O)c1cc(Oc2ccc(NC(=O)c3nc(SC)oc3-c3ccc(F)c(F)c3)cc2)ccn1 [Compound 4] | 80 to 89% | 80 to 89% | < 50% | 50 to 79% | 50 to 79% | < 50%
5 | CNC(=O)c1cc(Oc2ccc(NC(=O)c3nc(SC)oc3-c3ccc(Cl)s3)cc2)ccn1 [Compound 5] | 80 to 89% | 50 to 79% | < 50% | 50 to 79% | < 50% | < 50%
6 | CNC(=O)c1cc(Oc2ccc(NC(=O)c3nc(SC)oc3-c3ccc(F)cc3F)cc2)ccn1 [Compound 6] | 80 to 89% | ≥ 95% | 80 to 89% | ≥ 95% | 80 to 89% | 90 to 94%
7 | CNC(=O)c1cc(Oc2ccc(NC(=O)c3nc(SC)oc3-c3ccc(OC)cc3)cc2)ccn1 [Compound 7] | 80 to 89% | ≥ 95% | < 50% | < 50% | < 50% | < 50%
8 | CSc1nc(C(=O)Nc2ccc(Oc3ccnc(-c4cnn(C)c4)c3)c(F)c2)c(-c2ccc(F)cc2)o1 [Compound 11] | ≥ 95% | 90 to 94% | 90 to 94% | ≥ 95% | 80 to 89% | 50 to 79%
9 | CNC(=O)c1cc(Oc2ccc(NC(=O)c3nc(SC)oc3-c3ccc(F)cc3F)cc2F)ccn1 [Compound 12] | 80 to 89% | ≥ 95% | 50 to 79% | ≥ 95% | 50 to 79% | 80 to 89%
10 | CNC(=O)c1cc(Oc2ccc(NC(=O)c3nc(S(C)(=O)=O)sc3-c3ccc(F)cc3)cc2F)ccn1 [Compound 13] | 80 to 89% | 90 to 94% | 80 to 89% | 50 to 79% | < 50% | 50 to 79%

Now from value to compound:

Row | inhibition at 5 µM (DDR2) | inhibition at 5 µM (LCK) | inhibition at 5 µM (AXL) | inhibition at 5 µM (BRK) | inhibition at 5 µM (KIT) | inhibition at 5 µM (TRKB) | SMILES
11 | ≥ 95% | 50 to 79% | < 50% | 80 to 89% | 50 to 79% | 90 to 94% | CNC(=O)c1cc(Oc2ccc(NC(=O)c3nc(NC)oc3-c3ccc(F)cc3)cc2F)ccn1 [Compound 14]
12 | 90 to 94% | 50 to 79% | 50 to 79% | 50 to 79% | 50 to 79% | 50 to 79% | CNC(=O)c1cc(Oc2ccc(NC(=O)c3nc(OC)oc3-c3ccc(F)cc3)cc2F)ccn1 [Compound 15]
13 | < 50% | < 50% | < 50% | < 50% | < 50% | < 50% | CNC(=O)c1cc(Oc2ccc(NC(=O)c3nc(SC)oc3-c3ccc(F)s3)cc2F)ccn1 [Compound 16]
14 | 50 to 79% | < 50% | < 50% | < 50% | < 50% | 50 to 79% | CNC(=O)c1cc(Oc2ccc(NC(=O)c3nc(NC)oc3-c3ccc(F)s3)cc2F)ccn1 [Compound 17]
15 | 80 to 89% | 50 to 79% | < 50% | 50 to 79% | 50 to 79% | < 50% | CNC(=O)c1cc(Oc2c(F)cc(NC(=O)c3nc(NC)sc3-c3ccc(F)cc3)cc2F)ccn1 [Compound 19]
16 | 50 to 79% | < 50% | < 50% | < 50% | < 50% | 50 to 79% | CNC(=O)c1cc(Oc2ccc(NC(=O)c3nc(NC)sc3-c3ccc(F)cc3F)cc2F)ccn1 [Compound 21]
17 | 50 to 79% | 80 to 89% | 50 to 79% | 50 to 79% | 50 to 79% | 80 to 89% | CNC(=O)c1cc(Oc2ccc(NC(=O)c3nc(NC)sc3-c3ccc(F)cc3C)cc2F)ccn1 [Compound 23]
18 | 80 to 89% | 50 to 79% | < 50% | < 50% | < 50% | < 50% | CNC(=O)c1cc(Oc2ccc(NC(=O)c3nc(OC)oc3-c3ccc(F)c(F)c3)cc2F)ccn1 [Compound 24]
19 | 50 to 79% | < 50% | < 50% | < 50% | < 50% | < 50% | CNC(=O)c1cc(Oc2ccc(NC(=O)c3nc(OC)oc3-c3ccc(F)s3)cc2F)ccn1 [Compound 25]
20 | 80 to 89% | 90 to 94% | 50 to 79% | 90 to 94% | 50 to 79% | 50 to 79% | CNC(=O)c1cc(Oc2ccc(NC(=O)c3nc(C4CC4)oc3-c3ccc(F)cc3)cc2F)ccn1 [Compound 26]
21 | < 50% | < 50% | < 50% | < 50% | < 50% | < 50% | CSc1nc(C(=O)Nc2ccc(Oc3ccnc(C(=O)NC4CNC4)c3)c(F)c2)c(-c2ccc(F)s2)o1 [Compound 27]
22 | < 50% | < 50% | < 50% | < 50% | < 50% | < 50% | CSc1nc(C(=O)Nc2ccc(Oc3ccnc(C(=O)NC4COC4)c3)c(F)c2)c(-c2ccc(F)s2)o1 [Compound 28]
23 | 50 to 79% | < 50% | 50 to 79% | ≥ 95% | < 50% | < 50% | CSc1nc(C(=O)Nc2ccc(Oc3ccnc(C(=O)NC4CNC4)c3)c(F)c2)c(-c2ccc(F)cc2)o1 [Compound 29]

Reference: patent US11629143B2, “HipK4 inhibitors and uses thereof” (Vibliome Therapeutics, LLC, priority 2020, dated 2023)
